Where two headings read alike, the source gives them in different places.
Tests used:
[1] = molecular target: recombinant SARS-CoV-2 Main protease (Mpro) (Severe acute respiratory syndrome coronavirus 2 (2019-nCoV) (SARS-CoV-2), UniProt P0DTD1); assay: Cov Mpro Biochemical IC50 Assay; conditions: read-out: MPro IC50
SARS-CoV-2-NLuc = assay: microbe, parasite or virus in culture; assay type: cell-based, SARS Coronavirus 2
[2] = recombinant SARS-CoV-2 Mpro, fluorogenic peptide substrate
[3] = Severe acute respiratory syndrome coronavirus, 48 h; read-out: MPro EC50
[4] = recombinant SARS-CoV-2 Mpro 7.5 nM, fluorogenic peptide substrate 40 μM
[5] = Severe acute respiratory syndrome coronavirus, 48 h, read-out: MPro EC50

O=c1[nH]c2cc(-c3ccccc3Cl)sc2c(=O)n1-c1cncc(C2CCC2)c1 [Example 379]
IC50 [1, 2]: 436 nM | EC50 (SARS-CoV-2-NLuc; [3]): 186 nM

COc1cncc(-n2c(=O)c3sc(-c4ccccc4Cl)cc3n(CCC#N)c2=O)c1 [Example 836]
IC50 [1, 4]: 21.7 nM | EC50 (SARS-CoV-2-NLuc; [3]): 40.5 nM

O=c1[nH]c2cc(-c3c(Cl)cccc3-c3ccc4oncc4c3)ccc2c(=O)n1-c1cncc2ccccc12 [Example 361]
IC50 [1, 2]: 38.9 nM | EC50 (SARS-CoV-2-NLuc; [5]): 178 nM

6-[2-chloro-6-(8-methyl-[1,2,4]triazolo[1,5-a]pyridin-6-yl)phenyl]-3-(6-methoxy-4-isoquinolyl)-1H-thieno[3,2-d]pyrimidine-2,4-dione [Example 565]
IC50 [1, 4]: 16.5 nM | EC50 (SARS-CoV-2-NLuc; read-out: MPro EC50): 58.1 nM

N#CCCn1c(=O)n(-c2cncc(C(F)F)c2)c(=O)c2sc(-c3ccccc3C#N)cc21 [Example 888]
IC50 [1, 4]: 25.8 nM | EC50 (SARS-CoV-2-NLuc; [3]): 91.5 nM

O=c1[nH]c2cc(-c3c(Cl)cccc3-c3cnn4c3OCCC4)ccc2c(=O)n1-c1cncc2ccccc12 [Example 325]
IC50 [1, 2]: 15.8 nM | EC50 (SARS-CoV-2-NLuc; [5]): 27.9 nM

COc1ccc(Cl)c(-c2cc3[nH]c(=O)n(-c4cncc5cnccc45)c(=O)c3s2)c1 [Example 582]
IC50 [1, 4]: 8.83 nM | EC50 (SARS-CoV-2-NLuc; [5]): 31.7 nM

Cn1ncc2cncc(-n3c(=O)c4sc(-c5cc(Cl)ccc5Cl)cc4n(CCC#N)c3=O)c21 [Example 793]
IC50 [1, 4]: 6.63 nM | EC50 (SARS-CoV-2-NLuc; [5]): 5.02 nM

COc1cc(-c2cc3[nH]c(=O)n(-c4cncc5ccccc45)c(=O)c3s2)c(Cl)cc1Cl [Example 342]
IC50 [1, 2]: 4.49 nM | EC50 (SARS-CoV-2-NLuc; [5]): 6.76 nM

COc1cc(C#N)c(-c2cc3c(s2)c(=O)n(-c2cncc4cnn(C)c24)c(=O)n3CCC#N)cc1F [Example 795]
IC50 [1, 4]: 20 nM | EC50 (SARS-CoV-2-NLuc; [5]): 86.7 nM

CN(CCO)c1ccc2cncc(-n3c(=O)[nH]c4cc(-c5ccccc5Cl)sc4c3=O)c2c1 [Example 404]
IC50 [1, 4]: 6.49 nM | EC50 (SARS-CoV-2-NLuc; [5]): 37.4 nM

COc1cnc(Cl)c(-c2cc3[nH]c(=O)n(-c4cncc5ccccc45)c(=O)c3s2)c1 (single isomer, unassigned) [Example 629, 6-(2-chloro-5-methoxypyridin-3-yl)-3-(isoquinolin-4-yl)thieno[3,2-d]pyrimidine-2,4(1H,3H)-dione]
IC50 [1, 4]: 42.4 nM | EC50 (SARS-CoV-2-NLuc; read-out: MPro EC50): 290 nM

Cc1ccccc1-c1ccc2c(=O)n(-c3cncc4ccccc34)c(=O)[nH]c2c1 [Example 36]
IC50 [1, 2]: 388 nM | EC50 (SARS-CoV-2-NLuc; [5]): 619 nM

Cn1ncc2cncc(-n3c(=O)c4sc(-c5ccc(F)cc5C#N)cc4n(CCC#N)c3=O)c21 [Example 785]
IC50 [1, 4]: 37.8 nM | EC50 (SARS-CoV-2-NLuc; [5]): 137 nM

COc1ccc(Cl)c(-c2cc3[nH]c(=O)n(-c4cncc5cnn(C)c45)c(=O)c3s2)c1 [Example 498]
IC50 [1, 4]: < 2.54 nM | EC50 (SARS-CoV-2-NLuc; [5]): < 5.96 nM

COc1cc(-c2cc3c(s2)c(=O)n(-c2cncc(CO)c2)c(=O)n3CCC#N)c(Cl)cc1F [Example 1100, 3-(6-(2-chloro-4-fluoro-5-methoxyphenyl)-3-(5-(hydroxymethyl)pyridin-3-yl)-2,4-dioxo-3,4-dihydrothieno[3,2-d]pyrimidin-1(2H)-yl)propanenitrile]
IC50 [1, 4]: 2.6 nM | EC50 (SARS-CoV-2-NLuc; [3]): 15 nM

COc1ccc(Cl)c(-c2cc(F)c3c(=O)n(-c4cncc5ccccc45)c(=O)[nH]c3c2)c1 [Example 221]
IC50 [1, 2]: 65.8 nM | EC50 (SARS-CoV-2-NLuc; [3]): 50.6 nM

N#Cc1ccncc1-c1cc2[nH]c(=O)n(-c3cncc4ccccc34)c(=O)c2s1 [Example 535]
IC50 [1, 4]: 39.6 nM | EC50 (SARS-CoV-2-NLuc; [5]): 432 nM

Cc1cc(F)ccc1-c1cc2[nH]c(=O)n(-c3cncc4ccccc34)c(=O)c2s1 [Example 177]
IC50 [1, 2]: 89.7 nM | EC50 (SARS-CoV-2-NLuc; [5]): 137 nM

Cn1ncc2cncc(-n3c(=O)c4sc(-c5ccc(C(F)(F)F)cc5C#N)cc4n(CCC#N)c3=O)c21 [Example 775]
IC50 [1, 4]: 600 nM | EC50 (SARS-CoV-2-NLuc; [5]): > 1000 nM

COc1cncc(-n2c(=O)c3sc(-c4cc(OC)c(F)cc4Cl)cc3n(CCC#N)c2=O)c1 [Example 870]
IC50 [1, 4]: 2.89 nM | EC50 (SARS-CoV-2-NLuc; [5]): 3.41 nM

COc1cc(-c2cc3c(s2)c(=O)n(-c2cncc4ccncc24)c(=O)n3CCC#N)c(Cl)cc1F (single isomer, unassigned) [Example 1097, 3-[6-(2-chloro-4-fluoro-5-methoxy-phenyl)-3-(2,6-naphthyridin-4-yl)-2,4-dioxo-thieno[3,2-d]pyrimidin-1-yl]propanenitrile]
IC50 [1, 4]: 42.5 nM | EC50 (SARS-CoV-2-NLuc; read-out: MPro EC50): 33.2 nM

COc1cc(-c2ccc3c(=O)n(-c4cncc5ccccc45)c(=O)n(CCC#N)c3c2)c(Cl)cc1F [Example 949]
IC50 [1, 4]: 147 nM | EC50 (SARS-CoV-2-NLuc; [5]): 757 nM

O=c1[nH]c2cc(-c3c(Cl)cccc3-c3cncc(N4CCOCC4)c3)ccc2c(=O)n1-c1cncc2ccccc12 [Example 279]
IC50 [1, 2]: 5.27 nM | EC50 (SARS-CoV-2-NLuc; [5]): 7.65 nM

CC(C)(O)c1cncc(-c2cccc(Cl)c2-c2ccc3c(=O)n(-c4cncc5ccccc45)c(=O)[nH]c3c2)c1 [Example 209]
IC50 [1, 2]: 10.4 nM | EC50 (SARS-CoV-2-NLuc; [5]): 23.6 nM
